Columns and labels:
HEK293 cells = test: MTT assay; type: cell-based; details: data not shown
[1] = system: mouse embryonic fibroblasts (MEFs); test: MTT assay; type: cell-based; details: data not shown
[2] = target: T1, ternary BOB1/POU1/PORE complex (Homo sapiens, UniProt P14859); test: Electrophoretic mobility shift assay (EMSA); type: binding; details: 100 μM
T1 construct: made in house; host or cells: E. coli BL21
T1 sequence (P14859 280-438): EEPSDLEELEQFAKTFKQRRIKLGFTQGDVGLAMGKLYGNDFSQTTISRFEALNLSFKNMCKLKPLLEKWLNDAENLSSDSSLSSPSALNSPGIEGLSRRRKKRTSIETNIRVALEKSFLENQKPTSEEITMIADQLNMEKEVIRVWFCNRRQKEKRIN

B cells [3] = test: B cell apoptosis by intracellular active caspase-3 staining; type: cell-based; details: for percentage of caspase-3 positive B cells: day 7, mean±SD
Method: FIG. 5E-F show corresponding summarized data (n=8) for the frequency of caspase-3^+CD38^+/− non-plasmablasts (FIG. 5E) and caspase-3^+CD20^lowCD38^++ plasmablasts (FIG. 5F) at Day 7. […] Error bars are mean±SD. P values were determined with one-way ANOVA with Geisser-Greenhouse's multiple comparisons test.
B cells were stimulated to differentiate into plasmablasts using a two-phase cell culture protocol as previously described. Briefly, B cells were seeded at 4×10^5 cells/mL in 24-well plates and activated during 4 days with 50 ng/mL recombinant human soluble CD40L (R&D Systems), 2.5 μg/mL CpG oligodeoxynucleotide (ODN) 2006 (Amidogen or Cayla Invivogen), 2 μg/mL F(ab′)2 fragment goat anti-human IgA+IgG+IgM (H+L) polyclonal Abs (anti-BCR) (Jackson ImmunoResearch Laboratories), and 50 U/mL human IL-2 (SARL Pharmaxie or Novartis). Day 4-activated B cells were washed and cultured at the same concentration for three additional days in a fresh medium containing 50 U/mL human IL-2, 10 ng/mL human IL-4 (R&D Systems), and 10 ng/mL human IL-10 (R&D Systems) to induce B cell differentiation into plasmablasts. At days 0, 4 and 7, B cells were stained with viability marker LIVE/DEAD Fixable Aqua Dead Cell Stain (Thermofisher) to identify dead cells, followed by extracellular staining with anti-human mAbs: anti-CD20 FITC, anti-IgD BUV395, anti-CD27 BUV737, anti-CD38 BV605 (all from BD Biosciences) and analyzed by flow cytometry (FACSCelesta™, BD Biosciences). In some experiments, B cell apoptosis was evaluated by intracellular active caspase-3 staining (Caspase-3-PE, BD Biosciences).

B cells [4] = test: GZMB+ B cell expansion; type: cell-based, human; details: 10 μM added daily, day 3
Method: B cells were kept unstimulated (B resting) or stimulated (B expanded) for 24 hours with the expansion mixture containing F(ab′)2 anti-BCR, CpG ODN, CD40L, IL-2, and IL-21. FIG. 6A-B show the expression level of granzyme B measured as frequency (FIG. 6A) and by the MFI (FIG. 6B) in DMSO-treated (compound 005-) and 10 μM compound 005-treated resting (open circles) and expanded for 3 days (closed circles) B cells. […] Representative offset histogram overlays showing median fluorescence intensity of staining of gated live […] with cell proliferation dye (CPD) (FIGS. 6C, 6E and 6F). […]
Primary total human B cells (1×10^6 cells/mL) were prestimulated for ˜24 h with the cocktail containing 10 ng/mL of IL-21 (Miltenyi Biotec), 5 μg/mL of F(ab′)2 anti-BCR Abs (Jackson ImmunoResearch Laboratories Inc.), 50 ng/ml of CD40L (R&D systems), 1 μg/mL of CpG oligonucleotides (ODN 2006, Invivogen), and 50 U/mL of IL-2 (Novartis) as previously described, in the presence of vehicle (DMSO) or 10 μM compound 005. […] The capacity of B cells to suppress effector T cell proliferation was assessed as previously described. […] T cell proliferation was evaluated as the percentage of CPD-low T cells on day 3. […]

Cc1ccc(NC(=O)C2CN(c3nc(NCCCc4ccc(F)cc4)nc(NCCC(=O)O)n3)c3ccccc3O2)cc1Cl (stereo not shown) [compound 005, 3-((4-(2-((3-chloro-4-methylphenyl)carbamoyl)-2,3-dihydro-4H-benzo[b][1,4]oxazin-4-yl)-6-((3-(4-fluorophenyl)propyl)amino)-1,3,5-triazin-2-yl)amino)propanoic acid]
toxicity for HEK293 cells (HEK293 cells; concentrations up to 40 μM): non-toxic or mildly toxic
concentration from which inhibitory effect is observed in MTT assay (HEK293 cells): ≥ 10 µM
concentration showing toxicity [1]: ≥ 80 µM
effect on ternary BOB1/POU1/PORE complex [2]: has not affected
percentage of caspase-3 positive B cells (B cells [3]; 5 μM): 33.9±15.5%
percentage of caspase-3 positive B cells (B cells [3]; 10 μM): 25.6±7.5%
percentage of caspase-3 positive B cells (B cells [3]; 15 μM): 30.8±7.9%
frequencies of caspase-3 positive cells (B cells [3]; activation phase (days 0-4), even at high concentrations): did not affect
susceptibility to apoptosis of CD20loCD38hi plasmablast and CD20+CD38+/- non-plasmablast populations (B cells [3]; day 7): reduced susceptibility to apoptosis
GZMB expression (B cells [4]): did not affect
